These are literature values, as cited in patent publication US8828877B2, “Etching solution and trench isolation structure-formation process employing the same” (AZ Electronic Materials USA Corp., priority 2009, dated 2014).

The conditions of data set [1]: in water at 20° C.; "any" = can mix with water in any proportion.
The conditions of data set [2]: for δH: Hansen solubility parameter, strength of hydrogen bond; for Organic solvent δH: as given in Table 2 for the solvent of the etching solution.

`CC(C)=O` [Acetone]: in data set [1], the Saturation solubility entry is listed as “any”. In data set [2], the δH was 7.0 and the “Organic solvent δH” value was 7.0. For the molecule `C=CCOC(=O)CC(C)=O` [Allyl acetoacetate], the Saturation solubility in data set [1] is on record as 5.0 wt %. The δH in data set [2] is recorded as 8.6. On to `CCOCC` [Diethyl ether], for which the Saturation solubility in data set [1] is given as 6.9 wt %. In addition, the δH in data set [2] was 5.1. As to `CCCCOCCOCCOC(C)=O` [Diethyl glycol butyl ether acetate], in data set [1], the Saturation solubility is reported as 6.5 wt %. The δH in data set [2] is reported as 8.2. As to `CCCCOCCOCCO` [Diethyl glycol monobutyl ether], the Saturation solubility in data set [1] is listed as 6.5 wt %. Also, the δH in data set [2] is 10.6. Consider `CCC(=O)CC` [Diethyl ketone], for which the Saturation solubility in data set [1] is 5.0 wt %. Further, in data set [2], the δH is recorded as 4.7. For the molecule `COCOC` [Dimethoxymethane], the Saturation solubility in data set [1] was 32.3 wt %. The δH in data set [2] was 8.6.

`COC` [Dimethyl ether]: in data set [1], the Saturation solubility is 32.8 wt %. Moreover, the δH in data set [2] was 5.7. As to `COC(C)COC(C)COC(C)=O` (stereo not shown) [Dipropylene glycol monomethyl ether acetate], in data set [1], the Saturation solubility was 12.0 wt %. Also, the δH in data set [2] is recorded as 8.0. Take `CCOC(C)=O` [Ethyl acetate]: the δH in data set [2] is on record as 7.2. Consider `COCCOC` [Ethylene glycol dimethyl ether], for which, in data set [1], the Saturation solubility entry was “any”. Take `CCOCCOC(C)=O` [Ethylene glycol monoethyl ether acetate]: in data set [1], the Saturation solubility is 23.0 wt %. For the same molecule, the δH in data set [2] is given as 10.6. Take `COCCOC(C)=O` [Ethylene glycol monomethyl ether acetate]: the Saturation solubility result in data set [1] was “any”. Also, in data set [2], the δH was 11.6 and the “Organic solvent δH” value is 10.6. Consider `C=C(C)C(=O)O` [Methacrylic acid], for which the Saturation solubility in data set [1] is on record as 9.7 wt %. Also, in data set [2], the δH is listed as 10.2. `COC(C)=O` [Methyl acetate]: in data set [1], the Saturation solubility is on record as 25.0 wt %. Also, in data set [2], the δH is recorded as 7.6. Turning to `COC(=O)CC(C)=O` [Methyl acetoacetate], the Saturation solubility in data set [1] is 46.0 wt %. In data set [2], the δH was 8.9.

On to `CCOC` [Methyl ethyl ether], for which the Saturation solubility in data set [1] was no less than 5.0 wt %. In data set [2], the δH is recorded as 6.2. With `CC(=O)C=O` [Methylglyoxal], in data set [1], the Saturation solubility is given as no less than 40.0 wt %. In the case of `CCC=O` [Propion aldehyde], the Saturation solubility in data set [1] is 20.0 wt %. `CCOCC(C)OC(C)=O` (stereo not shown) [Propylene glycol monoethyl ether acetate]: the Saturation solubility in data set [1] was no less than 5.0 wt %. For the same molecule, the δH in data set [2] was 9.0. Take `CCOCC(C)O` (stereo not shown) [Propylene glycol monoethyl ether]: in data set [1], the Saturation solubility entry is given as “any”. Further, the δH in data set [2] is recorded as 10.5. Turning to `COCC(C)OC(C)=O` (stereo not shown) [Propylene glycol monomethyl ether acetate], in data set [1], the Saturation solubility is on record as 19.0 wt %. For the same molecule, in data set [2], the δH was 9.8 and the “Organic solvent δH” value was 9.0. For the molecule `COCC(C)O` (stereo not shown) [Propylene glycol monomethyl ether], in data set [2], the δH was 11.6 and the “Organic solvent δH” value is 10.5. On to `COC(C)COC(C)COC(C)CO` (stereo not shown) [Tripropylene glycol monomethyl ether], for which the Saturation solubility entry in data set [1] is given as “any”. Further, the δH in data set [2] was 10.4.

With `CC(C)O` [isopropyl alcohol, reference compound], in data set [2], the δH is given as 16.4 and the “Organic solvent δH” value was 16.4.
